Test results as given in PMC8426237, “A first-in-human phase I study of TAS0728, an oral covalent binding inhibitor of HER2, in patients with advanced solid tumors with HER2 or HER3 aberrations” (Investigational New Drugs, 2021).

What was measured:
[1] = Dose-limiting toxicities, 3 + 3 dose escalation, first cycle; type: in vivo, human; settings: for Any DLTs / DLT: Grade ≥ 3 diarrhea only if lasting >48 h and unresponsive to intensive antidiarrheal medication: DLT-evaluable population; for Patients with DLT AEs: all treated population
Description: Based on preclinical toxicological studies and PK analysis, the starting dose of TAS0728 was 50 mg BID. Dose escalation followed a 3 + 3 dose-escalation scheme and planned to proceed using the following dose levels BID: 50 mg, 100 mg, 200 mg, 400 mg, 600 mg and 800 mg. TAS0728 was administered during a 21-day cycle.
If a DLT was identified at a particular dose level, de-escalation was made to an intermediate de-escalation dose level. […] The MTD was to be the dose level at which 0 of 6 or 1 of 6 patients experienced a DLT, with at least 2 patients experiencing DLTs at the next higher dose level. For the determination of the MTD, DLTs that occurred during the first cycle (i.e., first 21 days) of TAS0728 treatment were considered. Patients who experienced AEs were allowed two dose reductions during the study. TAS0728 treatment could be continued until disease progression, unacceptable toxicity, withdrawal of consent, or at the discretion of the investigator.

[2] = Plasma pharmacokinetics after single and multiple oral doses; type: in vivo, human
Description: Multiple blood samples were collected on day 1 of cycles 1 and 2 (i.e., pre-dose, post-dose at +0.5 h, +1 h, +1.5 h, +2 h, +3 h, +4 h, +6 h, +8 h, +12 h) for analysis of plasma PK after administration of single and multiple doses respectively; urine samples were collected 0–3 h prior to morning dose and 0–12 h post-morning dose on day 1 of cycle 1.
Continuous data were summarized with frequency, median, range, mean, standard deviation and standard error if relevant. Categorical data were presented as frequencies and percentages. 95% confidence intervals (CI) were calculated following the exact method. A p value <0.05 was considered statistically significant. Data were analyzed using the SAS® system software version 9.3 for Windows® (Statistical Analysis System, Cary, NC, USA). The PK data were analyzed using Phoenix WinNonlin (Version 6.4 or later, Certara L.P; Princeton New Jersey, United States). All analyses were descriptive and exploratory; no formal statistical testing was conducted.

[3] = system: advanced solid tumors with HER2 or HER3 aberrations; assay: Antitumor activity, objective tumor assessment by RECIST1.1; type: in vivo, human
Description: Objective tumor assessments were made according to the revised response evaluation criteria in solid tumors [RECIST1.1] [8] from evaluation of magnetic resonance imaging (MRI)/computed tomography (CT) scans made at screening (baseline) and after every 2 cycles during the first 6 months of treatment with TAS0728, and after every 3 cycles of treatment thereafter.

HER2 = system: HER2; parameters: method as in PMID 30787176; settings: cited from earlier work
[4] = system: HER2 overexpressed cancer cells; parameters: method as in PMID 30787176; settings: cited from earlier work
[5] = planned dose 50 mg, cycle 1, day 1, mean, n 3
[6] = planned dose 50 mg, cycle 1, day 1, n 3
[7] = planned dose 100 mg, cycle 1, day 1, mean, n 3
[8] = planned dose 100 mg, cycle 1, day 1, n 3
[9] = planned dose 100 mg, cycle 2, day 1, mean, n 2
[10] = planned dose 100 mg, cycle 2, day 1, mean, n 3
[11] = planned dose 100 mg, cycle 2, day 1, n 3
[12] = planned dose 150 mg, cycle 1, day 1, mean, n 5
[13] = planned dose 150 mg, cycle 1, day 1, mean, n 6
[14] = planned dose 150 mg, cycle 1, day 1, n 6
[15] = planned dose 150 mg, cycle 2, day 1, mean, n 2
[16] = planned dose 150 mg, cycle 2, day 1, n 2
[17] = planned dose 200 mg, cycle 1, day 1, mean, n 6
[18] = planned dose 200 mg, cycle 1, day 1, mean, n 7
[19] = planned dose 200 mg, cycle 1, day 1, n 7
[20] = planned dose 200 mg, cycle 2, day 1, mean, n 2
[21] = planned dose 200 mg, cycle 2, day 1, n 2

SMILES: C=CC(=O)N1CCC[C@@H](n2nc(C(=O)Nc3ccc(CC(=O)N(C)C)c(C)c3C)c3c(N)ncnc32)C1 [TAS0728]
- Any DLTs ([1]; 50 mg BID (N = 3)): 0 n, (%)
- DLT: Grade ≥ 3 diarrhea only if lasting >48 h and unresponsive to intensive antidiarrheal medication ([1]; 50 mg BID (N = 3)): 0 n, (%)
- Patients with DLT AEs ([1]; 50 mg BID (N = 3)): 0 n, (%)
- Any DLTs ([1]; 100 mg BID (N = 3)): 0 n, (%)
- DLT: Grade ≥ 3 diarrhea only if lasting >48 h and unresponsive to intensive antidiarrheal medication ([1]; 100 mg BID (N = 3)): 0 n, (%)
- Patients with DLT AEs ([1]; 100 mg BID (N = 3)): 0 n, (%)
- Any DLTs ([1]; 150 mg BID (N = 3)): 1 (33.3) n, (%)
- DLT: Grade ≥ 3 diarrhea only if lasting >48 h and unresponsive to intensive antidiarrheal medication ([1]; 150 mg BID (N = 3)): 1 (33.3) n, (%)
- Patients with DLT AEs ([1]; 150 mg BID (N = 6)): 1 (16.7) n, (%)
- DLTs observed (Grade 3 diarrhea lasting >48 h, not responsive to antidiarrheal treatment) ([1]; 200 mg BID): two
- Any DLTs ([1]; 200 mg BID (N = 6)): 2 (33.3) n, (%)
- DLT: Grade ≥ 3 diarrhea only if lasting >48 h and unresponsive to intensive antidiarrheal medication ([1]; 200 mg BID (N = 6)): 2 (33.3) n, (%)
- Patients with DLT AEs ([1]; 200 mg BID (N = 7)): 2 (28.6) n, (%)
- Patients with DLT AEs ([1]; Overall (N = 19)): 3 (15.8) n, (%)
- Any DLTs ([1]; Total (N = 15)): 3 (20.0) n, (%)
- DLT: Grade ≥ 3 diarrhea only if lasting >48 h and unresponsive to intensive antidiarrheal medication ([1]; Total (N = 15)): 3 (20.0) n, (%)
- Accumulation of TAS0728 exposure ([2]; BID multiple-dose administration): No significant accumulation
- t1/2 ([2]; cycle 1, day 1, all dose levels): approximately 2.0 h
- AUC0–12 [2, 5]: 2437 ng·h/mL
- AUCinf [2, 5]: 2470 ng·h/mL
- AUClast [2, 5]: 2415 ng·h/mL
- Cmax [2, 5]: 1162 ng/mL
- t1/2 [2, 5]: 1.96 h
- Tmax maximum [2, 6]: 1.58 h
- Tmax median [2, 6]: 0.50 h
- Tmax minimum [2, 6]: 0.50 h
- AUC0–12 [2, 7]: 5669 ng·h/mL
- AUCinf [2, 7]: 5765 ng·h/mL
- AUClast [2, 7]: 5626 ng·h/mL
- Cmax [2, 7]: 2039 ng/mL
- t1/2 [2, 7]: 1.90 h
- Tmax maximum [2, 8]: 3.05 h
- Tmax median [2, 8]: 0.58 h
- Tmax minimum [2, 8]: 0.53 h
- AUC0–12 [2, 9]: 5475 ng·h/mL
- R(AUC0–12), observed accumulation ratio of AUC0–12 [2, 9]: 0.87
- t1/2 [2, 9]: 2.17 h
- AUClast [2, 10]: 4276 ng·h/mL
- Cmax [2, 10]: 1389 ng/mL
- R (Cmax), observed accumulation ratio of Cmax [2, 10]: 0.56
- Tmax maximum [2, 11]: 6.20 h
- Tmax median [2, 11]: 3.03 h
- Tmax minimum [2, 11]: 0.92 h
- AUC0–12 [2, 12]: 12,946 hr*ng/mL
- AUCinf [2, 12]: 13,158 hr*ng/mL
- t1/2 [2, 12]: 1.91 h
- AUClast [2, 13]: 19,523 hr*ng/mL
- Cmax [2, 13]: 5402 ng/mL
- Tmax maximum [2, 14]: 1.05 h
- Tmax median [2, 14]: 0.59 h
- Tmax minimum [2, 14]: 0.50 h
- AUC0–12 [2, 15]: 14,782 hr*ng/mL
- AUClast [2, 15]: 14,782 hr*ng/mL
- Cmax [2, 15]: 3460 ng/mL
- R (Cmax), observed accumulation ratio of Cmax [2, 15]: 0.91
- R(AUC0–12), observed accumulation ratio of AUC0–12 [2, 15]: 1.61
- t1/2 [2, 15]: 3.11 h
- Tmax maximum [2, 16]: 1.58 h
- Tmax median [2, 16]: 1.30 h
- Tmax minimum [2, 16]: 1.02 h
- AUC0–12 [2, 17]: 14,653 hr*ng/mL
- AUCinf [2, 17]: 15,046 hr*ng/mL
- t1/2 [2, 17]: 2.05 h
- AUClast [2, 18]: 15,108 hr*ng/mL
- Cmax [2, 18]: 5091 ng/mL
- Tmax maximum [2, 19]: 3.92 h
- Tmax median [2, 19]: 1.00 h
- Tmax minimum [2, 19]: 0.45 h
- AUC0–12 [2, 20]: 11,459 hr*ng/mL
- AUClast [2, 20]: 11,248 hr*ng/mL
- Cmax [2, 20]: 2565 ng/mL
- R (Cmax), observed accumulation ratio of Cmax [2, 20]: 0.96
- R(AUC0–12), observed accumulation ratio of AUC0–12 [2, 20]: 1.18
- t1/2 [2, 20]: 3.13 h
- Tmax maximum [2, 21]: 3.25 h
- Tmax median [2, 21]: 1.88 h
- Tmax minimum [2, 21]: 0.52 h
- Time on treatment before disease progression, patient with PR (BTC, HER2 amplification) ([3]; 200 mg BID, no dose adjustment): 136 days
- Patients with disease control (best overall tumor response of PR or SD) ([3]; all dose levels): 10
- Objective responses (PR) ([3]; of 19 treated patients, NSCLC with HER2 mutation at 50 mg BID, BTC with HER2 amplification at 200 mg BID): two
- Specificity for HER2 over wild-type EGFR (HER2): high specificity for HER2 over wild-type EGFR
- Inhibitory effect against HER2 and HER3 versus EGFR (HER2; nonclinical studies): much greater against HER2 and HER3 than against EGFR
- Inhibitory activity for overexpressed/amplified HER2 and mutated HER2 in cancer cells [4]: potent inhibitory activity
- Antiproliferative activity against HER2 overexpressed cancer cells ([4]; in vitro and in vivo): antiproliferative activity
